According to patent publication US9346829B2, “5-HT3 receptor antagonists” (Takeda Phamaceutical Company Limited, priority 2012, dated 2016):
pIC50: −log10 of the molar value. Structures can show the parent of a compound that is named as a salt.

biological target: 5-HT3a receptor (Homo sapiens (Human), UniProt P46098); experiment: Inhibition of Ca flux activity of 5-HT3 in vitro assay; assay type: cell-based; conditions: approximate IC50; calcium flux, 5-HT3a expressed in HEK-293T cells, 5HT 216 nM; read-out: IC50
Sequence (P46098 24-478): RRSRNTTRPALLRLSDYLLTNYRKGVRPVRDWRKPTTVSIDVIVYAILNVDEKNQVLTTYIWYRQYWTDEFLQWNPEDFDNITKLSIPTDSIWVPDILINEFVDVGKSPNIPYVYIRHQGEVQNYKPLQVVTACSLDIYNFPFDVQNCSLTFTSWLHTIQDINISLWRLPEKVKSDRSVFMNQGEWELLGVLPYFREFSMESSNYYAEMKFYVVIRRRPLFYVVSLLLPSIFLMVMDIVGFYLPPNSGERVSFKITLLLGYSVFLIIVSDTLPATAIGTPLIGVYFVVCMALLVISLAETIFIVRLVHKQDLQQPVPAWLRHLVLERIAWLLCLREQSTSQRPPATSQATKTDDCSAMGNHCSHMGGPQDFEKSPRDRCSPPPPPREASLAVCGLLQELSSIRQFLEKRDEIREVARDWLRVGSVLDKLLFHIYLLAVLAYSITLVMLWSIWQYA
Description: The 5-HT3 antagonist activity of the compounds of the invention was determined by measuring the ability of the compounds to inhibit the calcium flux activity of […] receptor expressed in HEK-293T cells. HEK-293T cells were transfected with the 5-HT3a expression construct using Xtreme Gene 9 (Roche) in 150 mm tissue culture treated plates and incubated for 24 hours at 37° C. Cells were then split and plated at a density of 60K cells/well in poly-lysine coated, black 96-well plates with clear bottoms (BD BioSciences) and incubated overnight at 37° C. Growth media was removed and cells loaded with 200 uL calcium indicator dye in HBSS containing 20 mM HEPES (Calcium 5 Assay kit, Molecular Devices) and incubated at 37° C. for 1 hour. While cells were incubating, the 10× antagonist and agonist/antagonist addition plates were made. For 10× antagonist plate: half log serial dilutions (final concentrations range from 10^−7 through 10^−10 with the bottom well a negative, no ligand control) were made from test compounds in DMSO at a 1000× concentration and then diluted to 10× in HBSS/20 mM HEPES. For addition plate: 5HT was diluted to 100× in HBSS/20 mM HEPES (final concentration in the assay—216 nM) and 15 uL was added to each well of the addition plate, 15 uL of 10× compound was also added to the addition plate, and finally 120 uL of HBSS/20 mM HEPES (for a total of 150 uL). Cells were then removed from the incubator and equilibrated to room temperature for 10 minutes, then 22.5 uL of 10× test compounds were added in triplicate to the plates and incubated at room temperature for 10 minutes (Tropisetron was used as a positive control in every assay). Test plate and addition plate were loaded into the FlexStation III (Molecular Devices), and using the fluidics, 22.5 uL compound additions were made (at t=˜17 seconds), and fluorescence was measured for 90 seconds, reading every 2.2 seconds. Data sets were analyzed as max minus min using Software Max Pro (Molecular Devices). IC50 curves were generated using non-linear regression in GraphPad Prism.

SMILES	pIC50
N#Cc1cc(-n2cc(C(=O)O[C@H]3C[C@H]4COC[C@@H](C3)N4)c3ccccc32)ccn1 [Compound 19, (1R,5S,7S)-3-oxa-9-azabicyclo[3.3.1]nonan-7-yl 1-(2-cyanopyridin-4-yl)-1H-indole-3-carboxylate, 2,2,2-trifluoroacetic acid salt]	8.43
Cc1ccncc1-n1cc(C(=O)N[C@H]2C[C@H]3COC[C@@H](C2)N3C)c2ccccc21 [Compound 21, N-((1R,5S,7S)-9-methyl-3-oxa-9-azabicyclo[3.3.1]nonan-7-yl)-1-(4-methylpyridin-3-yl)-1H-indole-3-carboxamide, 2,2,2-trifluoroacetic acid salt]	8.96
CN1[C@@H]2COC[C@H]1C[C@@H](NC(=O)c1cn(-c3cccnc3)c3ccccc13)C2 [Compound 2, N-((1R,5S,7S)-9-methyl-3-oxa-9-azabicyclo[3.3.1]nonan-7-yl)-1-(pyridin-3-yl)-1H-indole-3-carboxamide, 2,2,2-trifluoroacetate]	9.29
CN1[C@@H]2COC[C@H]1C[C@@H](NC(=O)c1cn(-c3ccn(C)n3)c3ccccc13)C2 [Compound 17, 1-(1-methyl-1H-pyrazol-3-yl)-N-((1R,5S,7S)-9-methyl-3-oxa-9-azabicyclo [3.3.1]nonan-7-yl)-1H-indole-3-carboxamide, 2,2,2-trifluoroacetic acid salt]	9.12
CN1[C@@H]2COC[C@H]1C[C@@H](NC(=O)c1cn(-c3ccnn3C)c3ccccc13)C2 [Compound 23, 1-(1-methyl-1H-pyrazol-5-yl)-N-((1R,5S,7S)-9-methyl-3-oxa-9-azabicyclo[3.3.1]nonan-7-yl)-1H-indole-3-carboxamide, 2,2,2-trifluoroacetic acid salt]	9.00
CN1[C@@H]2COC[C@H]1C[C@@H](NC(=O)c1nn(-c3ccccn3)c3ccccc13)C2 [Compound 14, N-((1R,5S,7S)-9-methyl-3-oxa-9-azabicyclo[3.3.1]nonan-7-yl)-1-(pyridin-2-yl)-1H-indazole-3-carboxamide, 2,2,2-trifluoroacetic acid salt]	8.87
Cc1ncccc1-n1cc(C(=O)N[C@H]2C[C@H]3COC[C@@H](C2)N3C)c2ccccc21 [Compound 20, N-((1R,5S,7S)-9-methyl-3-oxa-9-azabicyclo[3.3.1]nonan-7-yl)-1-(2-methylpyridin-3-yl)-1H-indole-3-carboxamide, 2,2,2-trifluoroacetic acid salt]	8.82
O=C(N[C@H]1C[C@H]2COC[C@@H](C1)N2)c1cn(-c2cn[nH]c2)c2ccccc12 [Compound 30, N-((1R,5S,7S)-3-oxa-9-azabicyclo[3.3.1]nonan-7-yl)-1-(1H-pyrazol-4-yl)-1H-indole-3-carboxamide]	9.13
CN1[C@@H]2COC[C@H]1C[C@@H](NC(=O)c1cn(-c3ccccn3)c3ccccc13)C2 [Compound 8, N-((1R,5S,7S)-9-methyl-d3-3-oxa-9-azabicyclo[3.3.1]nonan-7-yl)-1-(pyridin-2-yl)-1H-indole-3-carboxamide, 2,2,2-trifluoroacetate]	9.09
CN1[C@@H]2COC[C@H]1C[C@@H](OC(=O)c1cn(-c3ccccn3)c3ccccc13)C2 [Compound 7, (1R,5S,7S)-9-methyl-d3-3-oxa-9-azabicyclo[3.3.1]nonan-7-yl 1-(pyridin-2-yl)-1H-indole-3-carboxylate, 2,2,2-trifluoroacetate]	8.54
CN1[C@@H]2COC[C@H]1C[C@@H](NC(=O)c1cn(-c3cccnc3)c3ncccc13)C2 [Compound 11, N-((1R,5S,7S)-9-methyl-3-oxa-9-azabicyclo[3.3.l]nonan-7-yl)-1-(pyridin-3-yl)-1H-pyrrolo[2,3-b]pyridine-3-carboxamide, 2,2,2-trifluoroacetic acid salt]	9.22
CN1[C@@H]2COC[C@H]1C[C@@H](OC(=O)c1cn(-c3cnn(CCF)c3)c3ccccc13)C2 [Compound 18, (1R,5S,7S)-9-methyl-3-oxa-9-azabicyclo[3.3.1]nonan-7-yl 1-(1-(2-fluoroethyl)-1H-pyrazol-4-yl)-1H-indole-3-carboxylate, 2,2,2-trifluoroacetic acid salt]	8.70
Cn1ccc(-n2cc(C(=O)O[C@H]3C[C@H]4COC[C@@H](C3)N4)c3ccccc32)n1 [Compound 16, (1R,5S,7S)-3-oxa-9-azabicyclo[3.3.1]nonan-7-yl 1-(1-methyl-1H-pyrazol-3-yl)-1H-indole-3-carboxylate, 2,2,2-trifluoroacetic acid salt]	8.60
CN1[C@@H]2COC[C@H]1C[C@@H](NC(=O)c1cn(-c3ccccn3)c3ccccc13)C2 [Compound 3, N-((1R,5S,7S)-9-methyl-3-oxa-9-azabicyclo[3.3.1]nonan-7-yl)-1-(pyridin-2-yl)-1H-indole-3-carboxamide, 2,2,2-trifluoroacetate]	9.02
Cn1cc(-n2cc(C(=O)N[C@H]3C[C@H]4COC[C@@H](C3)N4)c3ccccc32)cn1 [Compound 28, N-((1R,5S,7S)-3-oxa-9-azabicyclo[3.3.1]nonan-7-yl)-1-(1-methyl-1H-pyrazol-4-yl)-1H-indole-3-carboxamide]	8.69
CN1[C@@H]2COC[C@H]1C[C@@H](NC(=O)c1cn(-c3cccnc3)c3ncc(F)cc13)C2 [Compound 13, 5-fluoro-N-((1R,5S,7S)-9-methyl-3-oxa-9-azabicyclo [3.3.1]nonan-7-yl)-1-(pyridin-3-yl)-1H-pyrrolo[2,3-b]pyridine-3-carboxamide, 2,2,2-trifluoroacetic acid salt]	9.14
CN1[C@@H]2COC[C@H]1C[C@@H](NC(=O)c1cn(-c3cnn(C(F)F)c3)c3ccccc13)C2 [Compound 25, 1-(1-(difluoromethyl)-1H-pyrazol-4-yl)-N-((1R,5S,7S)-9-methyl-3-oxa-9-azabicyclo [3.3.1]nonan-7-yl)-1H-indole-3-carboxamide]	8.86
CN1[C@@H]2COC[C@H]1C[C@@H](NC(=O)c1cn(-c3ccccn3)c3ncc(F)cc13)C2 [Compound 12, 5-fluoro-N-((1R,5S,7S)-9-methyl-3-oxa-9-azabicyclo [3.3.1]nonan-7-yl)-1-(pyridin-2-yl)-1H-pyrrolo[2,3-b]pyridine-3-carboxamide, 2,2,2-trifluoroacetic acid salt]	9.05
CCN1[C@@H]2COC[C@H]1C[C@@H](NC(=O)c1cn(-c3cnn(C)c3)c3ccccc13)C2 [Compound 31, N-((1R,5S,7S)-9-ethyl-3-oxa-9-azabicyclo[3.3.1]nonan-7-yl)-1-(1-methyl-1H-pyrazol-4-yl)-1H-indole-3-carboxamide]	< 6.00
CN1[C@@H]2COC[C@H]1CC(NC(=O)c1cn(-c3cccnc3)c3ccccc13)C2 (stereo partly drawn) [Compound 6, N-((1R,5S,7S)-9-methyl-d3-3-oxa-9-azabicyclo[3.3.1]nonan-7-yl)-1-(pyridin-3-yl)-1H-indole-3-carboxamide, 2,2,2-trifluoroacetate]	8.96
Cn1cc(-n2cc(C(=O)O[C@H]3C[C@H]4COC[C@@H](C3)N4)c3ccccc32)cn1 [Compound 9, (1R,5S,7S)-3-oxa-9-azabicyclo [3.3.1]nonan-7-yl 1-(1-methyl-1H-pyrazol-4-yl)-1H-indol-3-carboxylate, 2,2,2-trifluoroacetic acid salt]	9.17
